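48-hour exposure; five concentrations; linearly interpolated endpoints. GI50 marks 50% less growth.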 The source made the active and inactive calls. No stated cut-off is given here; in the data, active = GI50 up to about 1.1 µM and inactive = higher. A value given as a limit tells only on which side of the number the result lay.

Some test systems named below: LXFL 529; M19-MEL; DMS-114; DLD-1; SNB-78; KM-20L2; RXF 631; DMS-273; HOP-18.
Experiment in all cases: growth of human tumour cells (NCI), 48 h

Consider `CC(=O)c1cccc(NC(=O)C(=O)C(C(=O)c2ccccc2F)C2OC(=O)c3ccccc32)c1` (stereo not drawn), for which the GI50 with LXFL 529 is 44 µM (inactive); with M19-MEL, 23.1 µM (inactive); in the experiment with DMS-114, 31 µM (inactive); with DLD-1, 45.8 µM (inactive); in the experiment on SNB-78, 12.5 µM (inactive); with KM-20L2, 40.2 µM (inactive). For the same molecule, the GI50 in the experiment with RXF 631 was 21.1 µM (inactive); in the experiment on DMS-273, 34 µM (inactive).
On to `CN=S(=O)(C[C@]1(O)CC2OC1C1OC(C)(C)OC21)c1ccccc1` (stereo partly drawn), for which the GI50 in the experiment with LXFL 529, in the experiment with M19-MEL, in the experiment with DMS-114, in the experiment on SNB-78, with KM-20L2 and with DMS-273 was > 100 µM (inactive) in each case.
For `CCOC(=O)c1c(-c2ccccc2)c(C(OC(c2ccccc2)c2c(-c3ccccc3)c(C(=O)OCC)n3ccccc23)c2ccccc2)c2ccccn12` (stereo not drawn), the GI50 with LXFL 529, in the experiment with HOP-18, in the experiment with DLD-1, in the experiment with SNB-78, with KM-20L2 and in the experiment with DMS-273 was > 100 µM (inactive) each time.
As for `N#CCC(=O)N/N=C1\C(=O)N(c2ccc(Cl)cc2)C(=O)C(=O)C1c1nc2ccccc2o1` (stereo not drawn), the GI50 with LXFL 529, with M19-MEL, in the experiment on DMS-114, in the experiment with HOP-18, with DLD-1 and in the experiment with SNB-78 was > 100 µM (inactive) each time. For the same molecule, the GI50 with KM-20L2, with RXF 631 and with DMS-273 was > 100 µM (inactive) in each case.
As for `Cc1ccc(-c2nnc3s/c(=C\c4ccc(N(C)C)cc4)c(=O)n23)cc1`, the GI50 in the experiment on LXFL 529, in the experiment on M19-MEL, in the experiment with DMS-114, with HOP-18, in the experiment on DLD-1 and with SNB-78 was > 100 µM (inactive) throughout. For the same molecule, the GI50 in the experiment on KM-20L2, with RXF 631 and in the experiment on DMS-273 was > 100 µM (inactive) throughout.
Consider `CC1(C)OCC[C@@H]1[Si](C)(C)C`, for which the GI50 with LXFL 529 was > 100 µM (inactive); in the experiment on M19-MEL, > 100 µM (inactive); in the experiment with DMS-114 it was 49.2 µM (inactive); in the experiment on HOP-18 it was 23.1 µM (inactive); in the experiment with SNB-78 it was > 100 µM (inactive); in the experiment on KM-20L2, > 100 µM (inactive). Also, the GI50 with RXF 631 was > 100 µM (inactive); in the experiment with DMS-273, 78.3 µM (inactive).
As to `Cc1cc(O)nc(NN2C(Cl)C(=O)C2c2cccc([N+](=O)[O-])c2)n1` (stereo not drawn), the GI50 in the experiment on LXFL 529 is 16 µM (inactive); in the experiment with M19-MEL, 19.5 µM (inactive); in the experiment with DMS-114 it was 21.8 µM (inactive); with HOP-18, 18.5 µM (inactive); in the experiment with SNB-78, 32.2 µM (inactive); in the experiment on KM-20L2, 27.3 µM (inactive). For the same molecule, the GI50 in the experiment with DMS-273 is 15.6 µM (inactive).
Turning to `O=C1C=C(Br)c2c(-c3ccccc3)oc3cccc1c23`, the GI50 in the experiment with LXFL 529 was > 65.2 µM (inactive); with M19-MEL it was > 60.1 µM (inactive); in the experiment on DMS-114, 24.8 µM (inactive); in the experiment with HOP-18, > 100 µM (inactive); in the experiment with DLD-1 it was > 100 µM (inactive); with SNB-78 it was 35.6 µM (inactive). Further, the GI50 is > 100 µM (inactive) with KM-20L2, 46.8 µM (inactive) with RXF 631 and > 42.9 µM (inactive) in the experiment on DMS-273.
As to `COc1ccc(CCC2NCCc3cc(OC)c(OC)cc32)cc1` (stereo not drawn), the GI50 is > 100 µM (inactive) with LXFL 529; > 100 µM (inactive) in the experiment with HOP-18; > 100 µM (inactive) in the experiment with DLD-1; 79.8 µM (inactive) in the experiment with SNB-78; > 100 µM (inactive) with KM-20L2.
As to `C/C(=C/c1c(C)[nH]c(=O)[nH]c1=O)C(=O)O`, the GI50 in the experiment with M19-MEL, in the experiment on DMS-114, with HOP-18, with DLD-1, with SNB-78 and in the experiment with KM-20L2 was > 1370 µM (inactive) throughout. For the same molecule, the GI50 in the experiment with DMS-273 is > 1370 µM (inactive).
For the molecule `CC#C[C@@]1(O)CCCC[C@@H]1O`, the GI50 in the experiment on M19-MEL, with DMS-114, in the experiment with HOP-18, with SNB-78, in the experiment on KM-20L2 and in the experiment with RXF 631 was > 100 µM (inactive) throughout. Further, the GI50 in the experiment on DMS-273 was > 100 µM (inactive).
`COC(=O)C(=O)C(C(=O)OC)C(=O)C(=O)Nc1cc(Cl)c(Cl)cc1Cl` (stereo not drawn): the GI50 is > 100 µM (inactive) in the experiment with LXFL 529; > 100 µM (inactive) in the experiment on M19-MEL; 14.6 µM (inactive) in the experiment with DMS-114; > 100 µM (inactive) with HOP-18; 76.4 µM (inactive) with DLD-1; > 100 µM (inactive) with KM-20L2. The GI50 in the experiment with RXF 631 was > 100 µM (inactive); with DMS-273, 44.7 µM (inactive).
Take `CCOC(=O)C1C(=O)CN2CCc3c([nH]c4ccccc34)C12C(=O)OCC` (stereo not drawn): the GI50 is > 100 µM (inactive) in the experiment with LXFL 529; > 100 µM (inactive) with M19-MEL; > 100 µM (inactive) in the experiment on DMS-114; 72.8 µM (inactive) with HOP-18; > 100 µM (inactive) in the experiment on DLD-1; > 100 µM (inactive) in the experiment on SNB-78. The GI50 in the experiment with KM-20L2, in the experiment with RXF 631 and in the experiment with DMS-273 was > 100 µM (inactive) throughout.
Take `C=C(Nc1ccc(OC)cc1OC)C(=O)Cc1cccc[n+]1[O-]`: the GI50 with LXFL 529, with M19-MEL, in the experiment on DMS-114, with HOP-18, with DLD-1 and in the experiment with SNB-78 was > 100 µM (inactive) throughout. Moreover, the GI50 in the experiment on KM-20L2 and with DMS-273 was > 100 µM (inactive) throughout.
Regarding `N#CN=C(N(Cc1ccccc1)Cc1ccccc1)N(Cc1ccccc1)Cc1ccccc1`, the GI50 in the experiment with LXFL 529 is 3.89 µM (inactive); in the experiment on M19-MEL, 25.5 µM (inactive); in the experiment on DMS-114 it was 4.85 µM (inactive); in the experiment on HOP-18, > 100 µM (inactive); in the experiment on DLD-1, 5.18 µM (inactive); in the experiment with SNB-78, > 100 µM (inactive). Also, the GI50 in the experiment with KM-20L2 was 16.4 µM (inactive).
As for `O=C1/C(=C/c2ccccc2)CCC/C1=C\c1ccccc1` [2,6-DIBENZYLIDENECYCLOHEXANONE], the GI50 in the experiment on LXFL 529 was 4.5 µM (inactive); in the experiment on M19-MEL, 1.97 µM (inactive); in the experiment on DMS-114, 9.68 µM (inactive); in the experiment with HOP-18, 19.5 µM (inactive); in the experiment on DLD-1, 3.04 µM (inactive); in the experiment with SNB-78, 17.5 µM (inactive). The GI50 was 8.79 µM (inactive) in the experiment on KM-20L2, 17.7 µM (inactive) with RXF 631 and 8.04 µM (inactive) in the experiment on DMS-273.
Regarding `CCOC(=O)C1S(=O)(=O)OCCOS1(=O)=O`, the GI50 in the experiment on LXFL 529, in the experiment with M19-MEL, with DLD-1, in the experiment with SNB-78, in the experiment on RXF 631 and with DMS-273 was > 100 µM (inactive) each time.
For `O=C1/C(=C/c2ccccc2)CN(C(=O)C(Cl)(Cl)Cl)C/C1=C\c1ccccc1`, the GI50 with LXFL 529 is 1.59 µM (inactive); in the experiment with M19-MEL, 1.33 µM (inactive); in the experiment on DMS-114, 1.6 µM (inactive); in the experiment on HOP-18 it was 2.96 µM (inactive); in the experiment with DLD-1, 1.96 µM (inactive); in the experiment with SNB-78 it was 2.72 µM (inactive). In addition, the GI50 is 2.16 µM (inactive) in the experiment on KM-20L2 and 1.06 µM (active) in the experiment with DMS-273.
Regarding `C[C@@H]1O[C@]2(O)[C@@H]3CCCN3S(=O)(=O)CCN2C1=O`, the GI50 with LXFL 529, with M19-MEL, in the experiment on HOP-18, with DLD-1, in the experiment on SNB-78 and in the experiment on KM-20L2 was > 100 µM (inactive) in each case. Moreover, the GI50 with RXF 631 is > 100 µM (inactive).

These data come from ChEMBL document CHEMBL1201862, “PubChem BioAssay data set” (2004).
